The values below come from ChEMBL document CHEMBL6127008, “Discovery and biological evaluation of biaryl acetamide derivatives as selective and in vivo active sphingosine kinase-2 inhibitors” (Eur J Med Chem, 2024).

A short description of data set [1]: Cytotoxicity against mouse NIH3T3 cells assessed as reduction in cell proliferation incubated for 48 hrs by CCK-8 assay. The format is toxicity, cell-based.
In another data set the test system is MCF7. Nature of the data set: cells. As to conditions: Homo sapiens, MCF7, 48 h.
The next data set concerns Hepa 1-6. Briefly: cells. Particulars: Mus musculus, Hepa1-6, 48 h.
The test system of data set [2] is HepG2. Briefly: cells. As to conditions: Homo sapiens, HepG2, 48 h.
For another data set, the system named is MC-38. Nature of the data set: cells. As to conditions: Mus musculus, MC-38, 48 h.
Data set [3] has as its target T1, Sphingosine kinase 2 (Homo sapiens, UniProt Q9NRA0).
T1 sequence (Q9NRA0 whole entry): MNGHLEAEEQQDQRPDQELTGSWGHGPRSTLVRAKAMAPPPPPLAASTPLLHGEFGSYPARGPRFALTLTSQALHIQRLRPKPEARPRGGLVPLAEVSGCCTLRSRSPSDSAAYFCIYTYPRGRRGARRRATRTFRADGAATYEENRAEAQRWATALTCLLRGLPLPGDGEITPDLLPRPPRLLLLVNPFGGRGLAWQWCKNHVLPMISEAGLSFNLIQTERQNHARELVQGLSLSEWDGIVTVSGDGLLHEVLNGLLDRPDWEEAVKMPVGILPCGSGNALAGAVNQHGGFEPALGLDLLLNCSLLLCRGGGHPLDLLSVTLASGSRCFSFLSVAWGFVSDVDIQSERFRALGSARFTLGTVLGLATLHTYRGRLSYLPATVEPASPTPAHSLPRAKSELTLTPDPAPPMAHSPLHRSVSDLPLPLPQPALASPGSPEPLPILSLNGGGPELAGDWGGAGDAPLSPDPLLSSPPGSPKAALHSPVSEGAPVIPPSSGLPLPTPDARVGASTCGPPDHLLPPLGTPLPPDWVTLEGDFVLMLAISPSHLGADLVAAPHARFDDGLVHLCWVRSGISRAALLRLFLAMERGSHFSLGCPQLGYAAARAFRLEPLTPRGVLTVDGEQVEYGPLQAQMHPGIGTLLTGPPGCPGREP
Nature of the data set: Inhibition of SphK2 (unknown origin).

The next data set addresses Sphingosine kinase 1 (Homo sapiens, UniProt Q9NYA1). Nature of the data set: Inhibition of SphK1 (unknown origin).
The test system of data set [4] is HepG2. Nature of the data set: Upregulation od SPH level in human HepG2 cell incubated for 48 hrs by SPH competitive ELISA method. The format is functional, cell-based. As to conditions: dose 0-60 µM.
In data set [5] the test system is HepG2. Briefly: Downregulation of SIP level in human HepG2 cells incubated for 48 hrs by SIP competitive ELISA method. The format is functional, cell-based. Particulars: dose 0-60 µM.
Data set [6] is described as follows: Aqueous solubility of compound in phosphate buffer at pH 2.0 by HPLC analysis. The format is physicochemical.
Data set [7] can be described thus: Aqueous solubility of compound in phosphate buffer at pH 9.0 by HPLC analysis. The format is physicochemical.
Data set [8] can be described thus: Aqueous solubility of compound in phosphate buffer at pH 7.4 by HPLC analysis. The format is physicochemical.
The subject of data set [9] is HepG2. Briefly: Induction of apoptosis in human HepG2 cells assessed as viable cells at 50 uM incubated for 48 hrs by Annexin V/FITC-PI staining based flow cytometry (reference value: 91.15%). Particulars: read-out: Activity. The format is functional.
For data set [10], the system named is HepG2. Nature of the data set: Inhibition of cell migration in human HepG2 cells assessed as scratch healing incubated for 24 to 48 hrs by wound healing assay. Particulars: dose 10-30 µM, time lower 24.0 hrs, time upper […]. The format is functional, cell-based.
Data set [11] has as its system HepG2. Briefly: Induction of apoptosis in human HepG2 cells assessed as necrotic cells at 5 uM incubated for 48 hrs by Annexin V/FITC-PI staining based flow cytometry (reference value: […]). The format is functional.
Data set [12] has as its system HepG2. Nature of the data set: Induction of apoptosis in human HepG2 cells assessed as necrotic cells at 20 uM incubated for 48 hrs by Annexin V/FITC-PI staining based flow cytometry (reference value: […]). The format is functional.
Data set [13] has as its system HepG2. Nature of the data set: Induction of apoptosis in human HepG2 cells assessed as early apoptotic cells at 20 uM incubated for 48 hrs by Annexin V/FITC-PI staining based flow cytometry (reference value: 1.98%). The format is functional.
For data set [14], the system named is HepG2. Briefly: Induction of apoptosis in human HepG2 cells assessed as early apoptotic cells at 50 uM incubated for 48 hrs by Annexin V/FITC-PI staining based flow cytometry (reference value: 1.98%). The format is functional.
For another data set, the system named is Mus musculus. Nature of the data set: In vivo inhibition SphK2 in female C57BL/6j mouse assessed as decrease in plasma SIP level at 10 to 30 mg/kg, ip measured after 4 hrs by SIP competitive ELISA method. The format is functional, organism-based. Particulars: dose 10-30 mg/kg.
Data set [15] has as its system HepG2. Briefly: Induction of apoptosis in human HepG2 cells assessed as late apoptotic cells at 20 uM incubated for 48 hrs by Annexin V/FITC-PI staining based flow cytometry (reference value: 3.32%). The format is functional.
For data set [16], the system named is HepG2. Nature of the data set: Induction of apoptosis in human HepG2 cells assessed as viable cells at 5 uM incubated for 48 hrs by Annexin V/FITC-PI staining based flow cytometry (reference value: 91.15%). The format is functional. As to conditions: read-out: Activity.
Data set [17] relates to HepG2. Briefly: Induction of apoptosis in human HepG2 cells assessed as necrotic cells at 50 uM incubated for 48 hrs by Annexin V/FITC-PI staining based flow cytometry (reference value: […]). The format is functional.
For data set [18], the system named is HepG2. Nature of the data set: Induction of apoptosis in human HepG2 cells assessed as late apoptotic cells at 50 uM incubated for 48 hrs by Annexin V/FITC-PI staining based flow cytometry (reference value: 3.32%). The format is functional.
In data set [19] the test system is HepG2. Nature of the data set: Induction of cell cycle arrest in human HepG2 cells assessed as accumulation of cell at G2 phase at 0 to 50 uM incubated for 48 hrs by PI staining based flow cytometric analysis. The format is functional. As to conditions: dose 0-50 µM.
Data set [20] concerns HepG2. Nature of the data set: Induction of apoptosis in human HepG2 cells assessed as early apoptotic cells at 5 uM incubated for 48 hrs by Annexin V/FITC-PI staining based flow cytometry (reference value: 1.98%). The format is functional.
Data set [21] has as its system HepG2. Nature of the data set: Induction of apoptosis in human HepG2 cells assessed as late apoptotic cells at 5 uM incubated for 48 hrs by Annexin V/FITC-PI staining based flow cytometry (reference value: 3.32%). The format is functional.
For data set [22], the system named is HepG2. Nature of the data set: Induction of apoptosis in human HepG2 cells assessed as viable cells at 20 uM incubated for 48 hrs by Annexin V/FITC-PI staining based flow cytometry (reference value: 91.15%). As to conditions: read-out: Activity. The format is functional.
In data set [23] the target is T1, Sphingosine kinase 2. Nature of the data set: Inhibition of SphK2 (unknown origin) using sphingosine as substrate incubated for 30 mins in presence of ATP by ADP-Glo assay.

≈ marks a conversion by molar mass, not a printed value. Calls of active or inactive are those of the source. The calls are words filed in the database; no cut-off is given here.

Chain of Sphingosine kinase 1 (Q9NYA1 whole entry): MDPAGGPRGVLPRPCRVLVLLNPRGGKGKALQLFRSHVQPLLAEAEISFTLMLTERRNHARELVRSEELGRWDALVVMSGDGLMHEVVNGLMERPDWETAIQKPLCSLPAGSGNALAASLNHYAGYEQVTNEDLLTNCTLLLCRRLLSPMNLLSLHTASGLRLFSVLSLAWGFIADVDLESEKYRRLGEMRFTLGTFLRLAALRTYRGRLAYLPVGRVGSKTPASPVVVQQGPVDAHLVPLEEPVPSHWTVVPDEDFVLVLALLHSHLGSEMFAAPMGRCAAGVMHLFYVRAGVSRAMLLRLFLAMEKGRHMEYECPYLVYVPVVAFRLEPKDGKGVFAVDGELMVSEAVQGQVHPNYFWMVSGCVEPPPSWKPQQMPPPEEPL

Take `NC(=O)[C@@H]1CCCN1C(=O)Cc1ccc(-c2ccc(OCc3ccccc3)nc2)cc1`: the IC50 at 48 h in data set [1] is greater than 100 µM. For the same compound, the IC50 in the data set with MCF7 was greater than 100 µM; with Hepa 1-6, 66.3 µM; in the data set on HepG2 [2], greater than 100 µM; in the data set on MC-38 it was greater than 100 µM.

As to `NC(=O)[C@@H]1CCCN1C(=O)Cc1ccc(-c2ccc(OCc3ccc(Cl)c(Cl)c3)nc2)cc1`, the IC50 at 48 h in [1] was greater than 100 µM. Moreover, the IC50 was 32.7 µM in the data set with MCF7, 37.5 µM with Hepa 1-6, 67.9 µM in the data set with HepG2 [2] and greater than 100 µM in the data set with MC-38.

`CS(=O)(=O)c1ccc(-c2sc(NS(=O)(=O)c3ccc(Br)cc3)nc2-c2ccccc2)cc1` displayed an IC50 against Sphingosine kinase 2 [3] greater than 10 µM.

On to `O=C(Cc1ccc(-c2ccc(OCc3ccc(Cl)cc3)nc2)cc1)N1CCC[C@H]1CO`, for which the IC50 at 48 h in data set [1] was greater than 100 µM. Also, the IC50 was 53.4 µM in the data set with MCF7, 49.1 µM with Hepa 1-6, 27.2 µM in the data set on HepG2 [2] and 57.4 µM in the data set with MC-38.

Regarding `CCCCCCCCc1ccc(CC[C@](N)(CO)COC)cc1`, on Sphingosine kinase 1, affinity was put at a Ki of 50 µM.

Turning to `O=C(Cc1ccc(-c2cnc(OCc3ccc(C(F)(F)F)cc3)cn2)cc1)N1CCC[C@H]1CO`, the Activity entry in the data set with HepG2 [4] and in the data set with HepG2 [5] was “Dose-Dependent Effect” in each case. The half-inhibitory concentration (IC50) at 48 h in data set [1] was greater than 100 µM. Also, the IC50 with MCF7 came out at 32.1 µM; with Hepa 1-6 it was 26.2 µM; in the data set on HepG2 [2], 17.6 µM; in the data set on MC-38, 36.3 µM. Besides, the solubility in [6] came out at 38.6 µM (≈ 18.2 µg/mL); in [7], 60.4 µM (≈ 28.5 µg/mL); in [8], 164 µM (≈ 77.5 µg/mL).

Turning to `O=C(Cc1ccc(-c2ccc(OCc3ccc(Cl)c(Cl)c3)nc2)cc1)N1CCC(O)CC1`, in [1], the IC50 at 48 h is greater than 100 µM. Moreover, the concentration for half-maximal inhibition (IC50) is 36.3 µM in the data set with MCF7, 59.2 µM with Hepa 1-6, greater than 100 µM with HepG2 [2] and 16.4 µM with MC-38. Further, the solubility in [6] came out at 11.6 µM (≈ 5.48 µg/mL); in [7] it was 59.6 µM (≈ 28.1 µg/mL); in data set [8], 183 µM (≈ 86.5 µg/mL).

Turning to `O=C(Cc1ccc(-c2ccc(OCc3ccc(Cl)c(Cl)c3)nc2)cc1)N1CCC[C@H]1CO`, the Activity entry is “Dose-Dependent Effect” in the data set with HepG2 [4]; “Dose-Dependent Effect” with HepG2 [5]; “Dose-Dependent Effect” in the data set on HepG2 [10]; 6.77% in the data set on HepG2 [11]; 4.62% in the data set on HepG2 [12]; 1.46% in the data set with HepG2 [13]. In addition, the Activity is 11.1% with HepG2 [14]; 11.01% in the data set on HepG2 [15]; 11.19% in the data set with HepG2 [17]; 10.09% in the data set on HepG2 [18]; 0.93% in the data set on HepG2 [20]; 6.61% in the data set with HepG2 [21]. Moreover, the IC50 at 48 h in data set [1] was greater than 100 µM. In addition, the IC50 in the data set with MCF7 came out at 14.7 µM; in the data set with Hepa 1-6 it was 46.1 µM; in the data set with HepG2 [2], 25.4 µM; with MC-38, 20.9 µM. Besides, in the data set on HepG2 [9], the viability at 50 µM came out at 67.6%. Besides, the result with Mus musculus and in the data set with HepG2 [19] was Active. Also, the solubility in data set [6] came out at 6.87 µM (≈ 3.24 µg/mL); in [7], 46.9 µM (≈ 22.1 µg/mL); in [8], 197 µM (≈ 92.6 µg/mL). In the data set with HepG2 [16], the viability at 5 µM was 85.7%. Also, in the data set with HepG2 [22], the viability at 20 µM was found to be 82.9%.

For `CCCCCOc1ccc2cc(-c3noc([C@@H]4[C@@H](O)CCN4C(=N)N)n3)ccc2c1`, the IC50 on Sphingosine kinase 2 [23] came out at 1.5 µM.

With `O=C(NCc1ccncc1)C12CC3CC(C1)CC(c1ccc(Cl)cc1)(C3)C2` [ABC-294640], the concentration for half-maximal inhibition (IC50) at 48 h in [1] was greater than 100 µM. The IC50 in the data set with MCF7 was found to be 33.5 µM; on Sphingosine kinase 2 [23], 11.4 µM; in the data set on Hepa 1-6, 41.9 µM; in the data set with HepG2 [2], 25.6 µM; with MC-38, 34.6 µM.

Turning to `NC(=O)[C@@H]1CCCN1C(=O)Cc1ccc(-c2ccc(OCc3ccc(Cl)cc3)nc2)cc1`, in [1], the 50% inhibitory concentration (IC50) at 48 h was greater than 100 µM. Further, the IC50 amounted to 25.4 µM in the data set on MCF7, 27.2 µM in the data set with Hepa 1-6, 34.4 µM in the data set on HepG2 [2] and 40.5 µM with MC-38.

In the case of `O=C(Cc1ccc(-c2cnc(OCc3ccc(Cl)cc3)cn2)cc1)N1CCC[C@H]1CO`, the IC50 at 48 h in data set [1] was greater than 100 µM. Moreover, the half-inhibitory concentration (IC50) in the data set on MCF7 was greater than 100 µM; in the data set on Hepa 1-6, 57.4 µM; with HepG2 [2], 46.4 µM; in the data set with MC-38, greater than 100 µM.
